Legend:
C/EBPα [1] = test: Immunoblot, C/EBPα protein in HWP; format: cell-based, human; details: day 15
Protocol: (§1) Immunoblot Analysis: Protein expression of GATA-2, GATA-3, PPARγ and C/EBPα were assessed by Western Blot. Total proteins were isolated from HWP treated with compounds or vehicles on day 15. The cells were washed twice with PBS, lysed in a lysis buffer containing HEPES-Tx-PI buffer: […] HEPES, 5 mM EDTA, 350 mM Sucrose, 1 μg/ml leupeptin, 1 μg/ml pepstatin, 1% Triton-X, 1 mM PMSF), processed with a 25G needle and centrifuged at 10,000 rpm for 5 min. Protein concentration was determined using the Micro BCA Protein Assay Kit (Fisher Scientific, Pittsburgh, Pa., USA) according to the manufacturers instructions. 20 μg proteins were loaded and separated by electrophoresis using the BioRad Electrophoretic System (60 V for 1 hour followed by 90 V for 5 hours). The proteins were then transferred to nitrocellulose membranes at 35 V overnight. The membrane was blocked for 1 hour at room temperature in 5% nonfat milk in Tris-buffered saline (TBS), then washed with Tween-20-TBS (TTBS, 0.1% Tween-20) three times (15 min, 5 min, 5 min), followed by incubation with primary antibodies human GATA-2, GATA-3, PPARγ, C/EBPα and β-actin (dilution 1:200) (all antibodies were purchased from Santa Cruz Biotechnology, Santa Cruz, Calif., USA) at room temperature for 2 hours. […]

PPARγ [2] = test: Immunoblot, PPARγ protein in HWP; format: cell-based, human; details: day 15
Protocol: as §1

GATA-3 [3] = test: Real-Time RT-PCR, GATA-3 mRNA in HWP; format: cell-based, human; details: day 15
Excerpt: (§2) Quantitative Real-Time RT-PCR: Real-Time reverse transcriptase polymerase chain reaction (RT-PCR) analysis was used to measure mRNA expression of human genes PPARγ, C/EBPα, GATA-2 and GATA-3 under the control of β-actin. Briefly, total RNA was isolated from HWP following treatment at days 15 with Trizol reagent (Invitrogen, Carlsbad, Calif., USA) according to the manufacturer's instruction. RNA was quantified using absorption of light at 260 and 280 nm, and sample integrity was checked by 1.5% agarose gel electrophoresis. 0.8 μg of total RNA from each sample was used for reverse transcription reaction using the TaqMan Reverse Transcription Reagents (Applied Biosystems, Foster City, Calif., USA) following the Manufacturer's instructions. PCR was done using the SYBR green Master Mix (Applied Biosystems, Foster City, Calif., USA) following the manufacturer's instructions. The temperature cycling conditions of amplification were as follows: an initial step of denaturation at 95° C. for 10 min, 40 cycles of denaturation at 95° C. for 30 s, annealing at 55° C. for 30 s, and elongation at 72° C. for 30 s. Real-Time RT-PCR was performed using Mx3000P Real-Time Thermocyclers (Statagene, La Jolla, Calif., USA). The relative mRNA levels of these genes were calculated by Pfaffl's mathematical method (Pfaffl, M W, Nucleic Acid Res (2001) 29:e45) and normalized with control-treated groups.

GATA-2 = test: Real-Time RT-PCR, GATA-2 mRNA in HWP; format: cell-based, human; details: day 15
Excerpt: as §2

[4] = test system: human white preadipocytes (HWP); test: MTT assay, viability of HWP during differentiation; format: cell-based; details: 15 days of differentiation
Protocol: Cell culture: Cell culture was carried out following the protocol provided by Promocell Company. Briefly, human white preadipocytes (HWP's […]) were cultured at 37° C. in a humidified 5% CO2 atmosphere and grown in a preadipocyte Growth medium (GM) with 100 units/ml penicillin and 100 μg/ml streptomycin until confluence (day 0). Differentiation was induced with preadipocyte Differentiation Medium (DM) for 3 days (days 3), where upon the medium was changed to adipocyte Nutrition Medium (NM) and cultured for 12 days (days 15) (HWP cell line and media were purchased from Promocell, Heidelberg, Germany).

GATA-3 [5] = test: Immunoblot, GATA-3 protein in HWP; format: cell-based, human; details: day 15
Protocol: Immunoblot Analysis: Protein expression of GATA-2, GATA-3, PPARγ and C/EBPα were assessed by Western Blot. Total proteins were isolated from HWP treated with compounds or vehicles on day 15. The cells were washed twice with PBS, lysed in a lysis buffer containing HEPES-Tx-PI buffer: […] HEPES, 5 mM EDTA, 350 mM Sucrose, 1 μg/ml leupeptin, 1 μg/ml pepstatin, 1% Triton-X, 1 mM PMSF), processed with a 25G needle and centrifuged at 10,000 rpm for 5 min. Protein concentration was determined using the Micro BCA Protein Assay Kit (Fisher Scientific, Pittsburgh, Pa., USA) according to the manufacturers instructions. 20 μg proteins were loaded and separated by electrophoresis using the BioRad Electrophoretic System (60 V for 1 hour followed by 90 V for 5 hours). The proteins were then transferred to nitrocellulose membranes at 35 V overnight. The membrane was blocked for 1 hour at room temperature in 5% nonfat milk in Tris-buffered saline (TBS), then washed with Tween-20-TBS (TTBS, 0.1% Tween-20) three times (15 min, 5 min, 5 min), followed by incubation with primary antibodies human GATA-2, GATA-3, PPARγ, C/EBPα and β-actin (dilution 1:200) (all antibodies were purchased from Santa Cruz Biotechnology, Santa Cruz, Calif., USA) at room temperature for 2 hours. The membrane was rinsed three times (15 min, 5 min, 5 min), then incubated at room temperature for 1 hour with Horseradish peroxidase-conjugated second antibody (1:10,000). The membrane was then incubated in ECL reagent (GE Healthcare, Piscataway, N.J., USA) for 1 minute. Protein was visualized using the UVP image analysis system (UVP, Upland, Calif., USA).

C/EBPα [6] = test: Real-Time RT-PCR, C/EBPα mRNA in HWP; format: cell-based, human; details: day 15
Excerpt: as §2

[7] = test system: human white preadipocytes (HWP); test: Oil-Red-O staining and quantification, HWP differentiation; format: cell-based; details: 15 days post differentiation induction
Protocol: Cell culture: Cell culture was carried out following the protocol provided by Promocell Company. […] Differentiation was induced with preadipocyte Differentiation Medium (DM) for 3 days (days 3), where upon the medium was changed to adipocyte Nutrition Medium (NM) and cultured for 12 days (days 15) (HWP cell line and media were purchased from Promocell, Heidelberg, Germany).
Oil-Red-O Staining and quantification: Oil-Red-O Staining and quantitative Oil-Red-O Staining were performed as previously reported. Briefly, medium was removed and cells were washed with PBS twice, fixed with 3.7% formalin at room temperature for 30 min, then rinsed with water, added 60% 2-propanol and incubated for 5 minutes, then moved out 2-propanol and stained cells with Oil-Red-O solution (Oil-Red-O store solution (3 mg/ml in pure 2-propanol): water=3:2) at room temperature for 10 min. Then the Oil-Red-O solution was removed and cells were washed 3 times with water. Images were obtained using an Olympus IX70 inverted microscope equipped for phase-contrast microscopy (Olympus, Tokyo, Japan). After staining, the cells were washed twice with 70% ethanol to remove excess stain. Stained oil droplets in the cells were dissolved in 2-propanol containing 4% Nonidet-P40 (Fisher Scientific, Pittsburgh, Pa., USA) and OD values were measured at an absorbance of 490 nm.

PPARγ [8] = test: Real-Time RT-PCR, PPARγ mRNA in HWP; format: cell-based, human; details: day 15
Excerpt: as §2

Question: For `COc1ccc2cc3[n+](cc2c1OC)CCc1cc2c(cc1-3)OCO2.[Cl-]` [berberine, Berberine (Chloride Form)], which “C/EBPα protein expression, drug-treated vs control cells” value (C/EBPα [1]) is on record?
Answer: The value was “no significant difference”.

Question: What about the “PPARγ protein expression, drug-treated vs control cells” value (PPARγ [2]) of the same compound?
Answer: Its value is “no significant difference”.

Question: What about the “GATA-3 mRNA expression vs control group” value (GATA-3 [3]; 1 μM) of the same compound?
Answer: The value was 2.77 fold.

Question: What about the “GATA-3 mRNA expression vs control group” value (GATA-3 [3]; 2 μM) of the same compound?
Answer: The value was 2.79 fold.

Question: And the “GATA-3 mRNA expression vs control group” value (GATA-3 [3]; 4 μM)?
Answer: Its value is 4.43 fold.

Question: What about the “GATA-3 mRNA expression vs control group” value (GATA-3 [3]; 8 μM) of the same compound?
Answer: The value was 6.77 fold.

Question: And the “GATA-2 mRNA expression vs vehicle (control) group” value (“GATA-2 mRNA expression vs vehicle” for short) (GATA-2; 1 μM)?
Answer: Its value is 3.87 fold.

Question: What about the “GATA-2 mRNA expression vs vehicle” value (GATA-2; 2 μM) of the same compound?
Answer: Its value is 4.1 fold.

Question: And the “GATA-2 mRNA expression vs vehicle” value (GATA-2; 4 μM)?
Answer: The value was 3.8 fold.

Question: What about the “GATA-2 mRNA expression vs vehicle” value (GATA-2; 8 μM) of the same compound?
Answer: The value was 5.33 fold.

Question: What about the “decrease of cell viability vs control” value ([4]; 1 μM) of the same compound?
Answer: Its value is −3.1%.

Question: And the “decrease of cell viability vs control” value ([4]; 2 μM)?
Answer: Its value is 1.1%.

Question: What about the “decrease of cell viability vs control” value ([4]; 4 μM) of the same compound?
Answer: The value was −0.0%.

Question: What about the “decrease of cell viability vs control” value ([4]; 8 μM) of the same compound?
Answer: Its value is 1.3%.

Question: What about the “GATA-3 protein expression vs controls” value (GATA-3 [5]; 1 μM) of the same compound?
Answer: The value was 5.63 fold.

Question: What about the “GATA-3 protein expression vs controls” value (GATA-3 [5]; 2 μM) of the same compound?
Answer: Its value is 5.65 fold.

Question: And the “GATA-3 protein expression vs controls” value (GATA-3 [5]; 4 μM)?
Answer: Its value is 6.43 fold.

Question: What about the “GATA-3 protein expression vs controls” value (GATA-3 [5]; 8 μM) of the same compound?
Answer: Its value is 5.37 fold.

Question: What about the “change in C/EBPα mRNA expression” value (C/EBPα [6]) of the same compound?
Answer: Its value is “no significant changes”.

Question: What about the “reduction in lipid content” value ([7]; 1 μM) of the same compound?
Answer: The value was 31.9%.

Question: What about the “reduction in lipid content” value ([7]; 2 μM) of the same compound?
Answer: The value was 42.9%.

Question: What about the “reduction in lipid content” value ([7]; 4 μM) of the same compound?
Answer: Its value is 60.6%.

Question: What about the “reduction in lipid content” value ([7]; 8 μM) of the same compound?
Answer: The value was 66.4%.

Question: What about the “change in PPARγ mRNA expression” value (PPARγ [8]) of the same compound?
Answer: Its value is “no significant changes”.

Question: Which results are given for evodiamine?
Answer: C/EBPα protein expression, drug-treated vs control cells (C/EBPα [1]): no significant difference; PPARγ protein expression, drug-treated vs control cells (PPARγ [2]): no significant difference; GATA-3 mRNA expression vs control group (GATA-3 [3]; 1 μM): 2.61 fold; GATA-3 mRNA expression vs control group (GATA-3 [3]; 2 μM): 2.7 fold; GATA-3 mRNA expression vs control group (GATA-3 [3]; 4 μM): 2.79 fold; GATA-2 mRNA expression vs vehicle (control) group (GATA-2; 1 μM): 1.36 fold; GATA-2 mRNA expression vs vehicle (control) group (GATA-2; 2 μM): 1.5 fold; GATA-2 mRNA expression vs vehicle (control) group (GATA-2; 4 μM): 2.08 fold; decrease of cell viability vs control ([4]; 0.25 μM): 14.1%; decrease of cell viability vs control ([4]; 0.5 μM): 15%; decrease of cell viability vs control ([4]; 1 μM): 17.7%; decrease of cell viability vs control ([4]; 2 μM): 30.5%; decrease of cell viability vs control ([4]; 4 μM): 34.2%; decrease of cell viability vs control ([4]; 8 μM): 53.6%; GATA-3 protein expression vs controls (GATA-3 [5]; 1 μM): 4.21 fold; GATA-3 protein expression vs controls (GATA-3 [5]; 2 μM): 4.95 fold; GATA-3 protein expression vs controls (GATA-3 [5]; 4 μM): 6.57 fold; change in C/EBPα mRNA expression (C/EBPα [6]): no significant changes; reduction in lipid content ([7]; 0.125 μM): 7.5%; reduction in lipid content ([7]; 0.25 μM): 13.8%; reduction in lipid content ([7]; 0.5 μM): 19%; reduction in lipid content ([7]; 1 μM): 27.8%; reduction in lipid content ([7]; 2 μM): 46.7%; reduction in lipid content ([7]; 4 μM): 84.6%; reduction in lipid content ([7]; 8 μM): 112.6%; change in PPARγ mRNA expression (PPARγ [8]): no significant changes

From patent US20110281852A1 (priority 2010, published 2011)
